From patent publication US8642597B2, “Pyrazole compounds for controlling invertebrate pests” (BASF SE, priority 2007, dated 2014)

Legend:
Format in all cases: in vivo
[1] = tested on: Green Peach Aphid (Myzus persicae, Mixed Life Stages); test: Green peach aphid (Myzus persicae, mixed life stages), pepper leaf dip test; details: foliar, 120 h, after 5 days, in comparison with untreated controls
From the text: (§1) The active compounds were formulated in 50:50 (vol:vol) acetone:water and 100 ppm Kinetica™ surfactant.
Pepper plants in the 2nd leaf-pair stage (variety ‘California Wonder’) were infested with approximately 40 laboratory-reared aphids by placing infested leaf sections on top of the test plants. The leaf sections were removed after 24 hr. The leaves of the intact plants were dipped into gradient solutions of the test compound and allowed to dry. Test plants were maintained under fluorescent light (24 hour photoperiod) at about 25° C. and 20-40% relative humidity. Aphid mortality on the treated plants, relative to mortality on check plants, was determined after 5 days.

[2] = tested on: Cotton Aphid (aphis gossypii, Mixed Life Stages); test: Cotton aphid (aphis gossypii, mixed life stages), cotyledon dip test; details: 120 h, mortality counts after 5 days, in comparison with untreated controls
From the text: as §1
Cotton plants at the cotyledon stage (one plant per pot) were infested by placing a heavily infested leaf from the main colony on top of each cotyledon. The aphids were allowed to transfer to the host plant overnight, and the leaf used to transfer the aphids was removed. The cotyledons were dipped in the test solution and allowed to dry. After 5 days, mortality counts were made.

[3] = tested on: Southern Armyworm (spodoptera eridania, 2nd instar larvae); test: Southern armyworm (spodoptera eridania, 2nd instar larvae), lima bean leaf dip test; details: foliar, 96 h, at 4 days, in comparison with untreated controls
Protocol: as §1
A pair of first true leaves of Sieva lima bean was dipped in the test solution and allowed to dry. The leaf was then placed in a plastic perforated zip enclosure bag and ten 2nd instar larvae were added. At 4 days, observations were made of mortality and reduced feeding.

[4] = tested on: Cowpea Aphid (aphis craccivora); test: Cowpea aphid (aphis craccivora), spray on potted cowpea plants; details: population reduction assessed after 24, 72 and 120 hours, in comparison with untreated controls
Protocol: The active compounds were formulated in 50:50 (vol:vol) acetone:water. The test solution was prepared at the day of use.
Potted cowpea plants colonized with 100-150 aphids of various stages were sprayed after the pest population had been recorded. Population reduction was assessed after 24, 72, and 120 hours.

[5] = tested on: Silverleaf Whitefly (bemisia argentifolii, adult); test: Silverleaf whitefly (bemisia argentifolii, adult), cotton cotyledon dip test; details: 72 h, 3 days after treatment, in comparison with untreated controls
Protocol: as §1
Selected cotton plants were grown to the cotyledon state (one plant per pot). The cotyledons were dipped into the test solution to provide complete coverage of the foliage and placed in a well-vented area to dry. Each pot with treated seedling was placed in a plastic cup and 10 to 12 whitefly adults (approximately 3-5 day old) were introduced. The insects were collected using an aspirator and an 0.6 cm, non-toxic Tygon® tubing (R-3603) connected to a barrier pipette tip. The tip, containing the collected insects, was then gently inserted into the soil containing the treated plant, allowing insects to crawl out of the tip to reach the foliage for feeding. The cups were covered with a reusable screened lid (150 micron mesh polyester screen PeCap from Tetko Inc). Test plants were maintained in the holding room at about 25° C. and 20-40% relative humidity for 3 days avoiding direct exposure to the fluorescent light (24 hour photoperiod) to prevent trapping of heat inside the cup. Mortality was assessed 3 days after treatment of the plants.

[6] = tested on: Vetch Aphid (Megoura viciae); test: Vetch aphid (Megoura viciae), bean leaf disk microtiterplate test; details: foliar, 144 h, concentration of the test solution 2500 mg/L, 6 days
Protocol: The active compounds were formulated in 1:3 (vol:vol) DMSO:water with different concentrations of formulated compounds.
Bean leaf disks were placed into microtiterplates filled with 0.8% agar-agar and 2.5 ppm OPUS™. The leaf disks were sprayed with 2.5 μl of the test solution and 5 to 8 adult aphids were placed into the microtiterplates which were then closed and kept at 23±1° C. and 50±5% relative humidity under fluorescent light for 6 days. Mortality was assessed on the basis of vital, reproduced aphids. Aphid mortality and fecundity was then visually assessed.

[7] = tested on: Boll Weevil (Anthonomus grandis); test: Boll weevil (Anthonomus grandis), insect diet microtiter plate test; details: 120 h, concentration of the test solution 2500 mg/L, egg and larval mortality after 5 days
Protocol: The compounds were formulated in 75:25 (vol:vol) water:DMSO.
For evaluating control of boll weevil (Anthonomus grandis) the test unit consisted of 24-well-microtiter plates containing an insect diet and 20-30 A. grandis eggs. Different concentrations of formulated compounds were sprayed onto the insect diet at 20 μl, using a custom built micro atomizer, at two replications. After application, the microtiter plates were incubated at 23±1° C. and 50±5% relative humidity for 5 days. Egg and larval mortality was then visually assessed.

| SMILES | mortality at 300 ppm [1] [%] | mortality at 300 ppm [2] [%] | mortality at 300 ppm [3] [%] | mortality at 300 ppm [4] [%] | mortality at 300 ppm [5] [%] | mortality at 2500 µg/mL [6] [%] | mortality at 2500 µg/mL [7] [%] |
| --- | --- | --- | --- | --- | --- | --- | --- |
| Cc1nn(C(F)F)cc1C(=O)Nc1cccnc1 [Compound 209] | ≥ 50 | ≥ 75 | ≥ 50 | ≥ 75 |  |  |  |
| CCn1ncc(C(=O)N(C)c2cccnc2)c1C [Compound 180] | ≥ 50 | ≥ 75 |  | ≥ 75 | ≥ 50 |  |  |
| Cc1c(C(=O)N(C)c2cccnc2)cnn1C(F)F [Compound 220] | ≥ 50 | ≥ 75 | ≥ 50 | ≥ 75 |  | ≥ 80 | 100 |
| Cc1cccc(-n2ncc(C(=O)Nc3cccnc3)c2C(F)F)c1 [Compound 158] | ≥ 50 | ≥ 75 | ≥ 50 | ≥ 75 |  | ≥ 80 |  |
| CN(C(=O)c1cnn(C(F)(F)F)c1)c1cccnc1 [Compound 233] | ≥ 50 | ≥ 75 | ≥ 50 |  |  |  |  |
| Cn1ncc(C(=O)Nc2cccnc2)c1Cl [Compound 83] | ≥ 50 | ≥ 75 |  | ≥ 75 | ≥ 50 |  |  |
| O=C(Nc1cccnc1)c1cnn(C(F)F)c1 [Compound 213] | ≥ 50 | ≥ 75 | ≥ 50 | ≥ 75 |  |  |  |
| CCn1cc(C(=O)Nc2cccnc2)cn1 [Compound 102] | ≥ 50 | ≥ 75 |  | ≥ 75 | ≥ 50 | ≥ 80 | 100 |
| CC(C)Cn1cc(C(=O)Nc2cccnc2)cn1 [Compound 98] | ≥ 50 | ≥ 75 | ≥ 50 | ≥ 75 |  | ≥ 80 |  |
| O=C(Nc1cccnc1)c1cn(-c2ccc(Cl)cc2)nc1C(F)(F)F [Compound 73] | ≥ 50 | ≥ 75 |  | ≥ 75 | ≥ 50 | ≥ 80 |  |
| O=C(Nc1cccnc1)c1cnn(-c2cccc(Cl)c2)c1C(F)F [Compound 157] | ≥ 50 | ≥ 75 | ≥ 50 | ≥ 75 |  | ≥ 80 | 100 |
| O=C(Nc1cccnc1)c1cnn(-c2ccc([N+](=O)[O-])cc2)c1C(F)(F)F [Compound 199] | ≥ 50 | ≥ 75 | ≥ 50 | ≥ 75 |  |  |  |
| Cn1cc(C(=O)Nc2cccnc2)c(C(F)(F)F)n1 [Compound 196] | ≥ 50 | ≥ 75 | ≥ 50 | ≥ 75 |  |  |  |
| Cc1c(C(=O)Nc2cccnc2)cnn1C [Compound 179] | ≥ 50 | ≥ 75 | ≥ 50 | ≥ 75 |  |  |  |
| Cc1nn(C(F)F)cc1C(=O)N(C)c1cccnc1 [Compound 229] | ≥ 50 | ≥ 75 |  |  | ≥ 50 |  |  |
| Cn1ncc(C(=O)Nc2cccnc2)c1C1CC1 [Compound 89] | ≥ 50 | ≥ 75 |  | ≥ 75 | ≥ 50 | ≥ 80 |  |

| SMILES | mortality at 300 ppm [1] [%] | mortality at 300 ppm [2] [%] | mortality at 300 ppm [3] [%] | mortality at 300 ppm [4] [%] | mortality at 300 ppm [5] [%] | mortality at 2500 µg/mL [6] [%] | mortality at 2500 µg/mL [7] [%] |
| --- | --- | --- | --- | --- | --- | --- | --- |
| O=C(Nc1cccnc1)c1cnn(Cc2ccccc2)c1 [Compound 82] | ≥ 50 | ≥ 75 |  | ≥ 75 | ≥ 50 |  |  |
| CN(C(=O)c1cnn(C)c1C(F)(F)F)c1cccnc1 [Compound 174] | ≥ 50 | ≥ 75 | ≥ 50 | ≥ 75 |  |  |  |
| CCn1ncc(C(=O)N(C)c2cccnc2)c1C(F)(F)F [Compound 186] | ≥ 50 | ≥ 75 |  | ≥ 75 |  | ≥ 80 | 100 |
| CC(=O)N(C(=O)c1cn(C)nc1C(F)(F)F)c1cccnc1 [Compound 134] | ≥ 50 | ≥ 75 |  | ≥ 75 | ≥ 50 | ≥ 80 |  |
| Cn1ncc(C(=O)Nc2cccnc2)c1C(F)F [Compound 167] | ≥ 50 | ≥ 75 |  | ≥ 75 |  | ≥ 80 | 100 |
| Cc1ccc(-n2ncc(C(=O)Nc3cccnc3)c2C(F)F)cc1 [Compound 138] | ≥ 50 | ≥ 75 |  | ≥ 75 |  | ≥ 80 | 100 |
| Cn1ncc(C(=O)Nc2cccnc2)c1C(F)(F)F [Compound 109] | ≥ 50 | ≥ 75 |  | ≥ 75 | ≥ 50 | ≥ 80 | 100 |
| Cn1nc(C(F)(F)F)c(C(=O)Nc2cccnc2)c1F [Compound 78] |  |  | ≥ 50 |  |  |  |  |
| O=C(Nc1cccnc1)c1cnn(-c2ccccc2Cl)c1C(F)F [Compound 148] | ≥ 50 | ≥ 75 |  | ≥ 75 |  | ≥ 80 | 100 |
| CN(C(=O)c1cnn(C(F)F)c1C(F)(F)F)c1cccnc1 [Compound 191] |  | ≥ 75 | ≥ 50 | ≥ 75 |  | ≥ 80 | 100 |
| Cn1cc(C(=O)Nc2cccnc2)cn1 [Compound 107] | ≥ 50 | ≥ 75 |  | ≥ 75 |  | ≥ 80 | 100 |
| CN(C(=O)c1cnn(C(F)F)c1C(F)F)c1cccnc1 [Compound 189] | ≥ 50 | ≥ 75 | ≥ 50 | ≥ 75 |  | ≥ 80 | 100 |
| CCc1c(C(=O)N(C)c2cccnc2)cnn1CC [Compound 185] | ≥ 50 | ≥ 75 |  | ≥ 75 |  | ≥ 80 | 100 |
| Cn1cc(C(=O)Nc2cccnc2)c(C(F)F)n1 [Compound 170] | ≥ 50 | ≥ 75 | ≥ 50 | ≥ 75 |  |  |  |
| O=C(Nc1cccnc1)c1cn[nH]c1 [Compound 87] | ≥ 50 | ≥ 75 |  | ≥ 75 |  | ≥ 80 | 100 |
| O=C(Nc1cccnc1)c1cnn(-c2ccc(F)cc2)c1C(F)(F)F [Compound 228] | ≥ 50 | ≥ 75 | ≥ 50 |  |  | ≥ 80 |  |
